Measurements from ChEMBL document CHEMBL1130430, “Assessment of solvation effects on calculated binding affinity differences: trypsin inhibition by flavonoids as a model system for congeneric series” (J Med Chem, 1997).
Each block holds one compound with its values, some of them ahead of it.

Experiments:
Serine protease 1 = target: T1, Serine protease 1 (Bos taurus, UniProt P00760); test: Inhibitory concentration of the compounds against Bovine trypsin enzyme.
T1 sequence (P00760 whole entry): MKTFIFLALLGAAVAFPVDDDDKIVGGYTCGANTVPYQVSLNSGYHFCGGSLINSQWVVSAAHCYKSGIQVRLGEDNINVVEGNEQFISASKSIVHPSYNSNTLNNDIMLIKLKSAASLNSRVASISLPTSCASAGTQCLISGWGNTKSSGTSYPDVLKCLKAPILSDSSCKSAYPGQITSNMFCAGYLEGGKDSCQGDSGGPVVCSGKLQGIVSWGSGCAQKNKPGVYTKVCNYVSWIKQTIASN

[1] = Disassociation constant (KI) was obtained from Cheng and Prusoff equation for quercetin trypsin complex

SMILES: O=c1c(O)c(-c2ccc(O)cc2O)oc2cc(O)cc(O)c12 [MORIN]
- IC50 (Serine protease 1): 111 µM
- Ki [1]: 30.9 µM

SMILES: O=c1cc(-c2ccc(O)cc2)oc2cc(O)cc(O)c12 [APIGENIN]
- IC50 (Serine protease 1): 142 µM
- Ki [1]: 39.5 µM

- IC50 (Serine protease 1): 106 µM
- Ki [1]: 29.5 µM
SMILES: O=c1c(O)c(-c2ccc(O)cc2)oc2cc(O)cc(O)c12 [KAEMPFEROL]

SMILES: O=c1cc(-c2ccc(O)c(O)c2)oc2cc(O)cc(O)c12 [LUTEOLIN]
- IC50 (Serine protease 1): 35.3 µM
- Ki [1]: 9.84 µM

SMILES: O=c1c(O)c(-c2cc(O)c(O)c(O)c2)oc2cc(O)cc(O)c12 [MYRICETIN]
- IC50 (Serine protease 1): 10.2 µM
- Ki [1]: 2.84 µM

SMILES: O=c1c(O)c(-c2ccc(O)c(O)c2)oc2cc(O)cc(O)c12 [QUERCETIN]
- Ki [1]: 1.98 µM

SMILES: COc1cc([C@@H]2Oc3c(O)cc([C@H]4Oc5cc(O)cc(O)c5C(=O)[C@@H]4O)cc3[C@H]2CO)ccc1O [SILICRISTIN]
- IC50 (Serine protease 1): 144 µM
- Ki [1]: 40.3 µM
